Results as given in ChEMBL document CHEMBL5537191, “Rebamipide and Derivatives are Potent, Selective Inhibitors of Histidine Phosphatase Activity of the Suppressor of T Cell Receptor Signaling Proteins” (J Med Chem, 2024).
Active and inactive are the calls of the source. The calls are words filed in the database; no cut-off is given here.

Experiments:
[1] = target: T1, Ubiquitin-associated and SH3 domain-containing protein A (Homo sapiens) (UniProt P57075); experiment: Inhibition of human STS-2 HP domain (396 to 657 residues) phosphatase activity expressed in Escherichia coli BL21 (DE3) incubated for 20 mins by spectrophotometric analysis
T1 sequence (whole entry): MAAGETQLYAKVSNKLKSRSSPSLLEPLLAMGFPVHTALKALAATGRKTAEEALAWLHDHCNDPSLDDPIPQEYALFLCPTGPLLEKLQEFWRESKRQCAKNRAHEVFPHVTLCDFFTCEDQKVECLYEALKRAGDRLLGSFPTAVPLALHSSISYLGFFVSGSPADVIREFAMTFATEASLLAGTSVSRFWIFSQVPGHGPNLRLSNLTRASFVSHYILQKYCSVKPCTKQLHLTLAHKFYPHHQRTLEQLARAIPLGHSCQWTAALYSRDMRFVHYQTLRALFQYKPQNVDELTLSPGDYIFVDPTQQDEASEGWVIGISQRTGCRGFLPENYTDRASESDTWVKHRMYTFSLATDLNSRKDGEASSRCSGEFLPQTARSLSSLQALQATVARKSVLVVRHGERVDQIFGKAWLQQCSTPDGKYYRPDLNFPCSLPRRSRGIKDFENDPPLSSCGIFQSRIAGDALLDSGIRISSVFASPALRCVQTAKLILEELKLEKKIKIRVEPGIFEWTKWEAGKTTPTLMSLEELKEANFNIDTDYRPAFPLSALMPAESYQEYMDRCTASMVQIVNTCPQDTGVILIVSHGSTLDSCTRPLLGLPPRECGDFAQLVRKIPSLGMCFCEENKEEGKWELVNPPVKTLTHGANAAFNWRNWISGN

Homo sapiens = species: Homo sapiens; experiment: Inhibition of recombinant STS-1 W505L mutant HP domain (unknown origin)
[2] = target: T2, Tyrosine-protein phosphatase non-receptor type 1 (Homo sapiens) (UniProt P18031); experiment: Inhibition of recombinant human PTP-1B (1 to 321 residues) phosphatase activity expressed in Escherichia coli incubated for 20 mins by spectrophotometric analysis
T2 sequence (whole entry): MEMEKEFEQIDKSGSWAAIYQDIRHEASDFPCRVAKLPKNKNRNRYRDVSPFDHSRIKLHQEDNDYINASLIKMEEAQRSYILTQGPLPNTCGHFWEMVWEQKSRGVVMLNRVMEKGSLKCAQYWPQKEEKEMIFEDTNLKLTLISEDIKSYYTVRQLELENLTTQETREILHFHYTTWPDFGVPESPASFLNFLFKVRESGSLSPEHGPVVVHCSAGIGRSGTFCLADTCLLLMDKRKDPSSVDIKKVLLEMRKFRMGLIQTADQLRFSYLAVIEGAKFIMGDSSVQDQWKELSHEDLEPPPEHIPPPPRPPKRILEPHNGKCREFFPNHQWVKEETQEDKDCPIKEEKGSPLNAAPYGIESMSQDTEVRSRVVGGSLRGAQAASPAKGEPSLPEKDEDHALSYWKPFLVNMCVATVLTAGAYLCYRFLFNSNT

[3] = target: Tyrosine-protein phosphatase non-receptor type 6 (Homo sapiens) (UniProt P29350); experiment: Inhibition of recombinant human SHP1 (243 to 541 residues) phosphatase activity expressed in Escherichia coli incubated for 20 mins by spectrophotometric analysis
[4] = target: T3, Receptor-type tyrosine-protein phosphatase C (Homo sapiens) (UniProt P08575); experiment: Inhibition of recombinant human CD45 (604 to 1304 residues) phosphatase activity expressed in baculovirus infected Sf9 incubated for 20 mins by spectrophotometric analysis
T3 sequence (whole entry): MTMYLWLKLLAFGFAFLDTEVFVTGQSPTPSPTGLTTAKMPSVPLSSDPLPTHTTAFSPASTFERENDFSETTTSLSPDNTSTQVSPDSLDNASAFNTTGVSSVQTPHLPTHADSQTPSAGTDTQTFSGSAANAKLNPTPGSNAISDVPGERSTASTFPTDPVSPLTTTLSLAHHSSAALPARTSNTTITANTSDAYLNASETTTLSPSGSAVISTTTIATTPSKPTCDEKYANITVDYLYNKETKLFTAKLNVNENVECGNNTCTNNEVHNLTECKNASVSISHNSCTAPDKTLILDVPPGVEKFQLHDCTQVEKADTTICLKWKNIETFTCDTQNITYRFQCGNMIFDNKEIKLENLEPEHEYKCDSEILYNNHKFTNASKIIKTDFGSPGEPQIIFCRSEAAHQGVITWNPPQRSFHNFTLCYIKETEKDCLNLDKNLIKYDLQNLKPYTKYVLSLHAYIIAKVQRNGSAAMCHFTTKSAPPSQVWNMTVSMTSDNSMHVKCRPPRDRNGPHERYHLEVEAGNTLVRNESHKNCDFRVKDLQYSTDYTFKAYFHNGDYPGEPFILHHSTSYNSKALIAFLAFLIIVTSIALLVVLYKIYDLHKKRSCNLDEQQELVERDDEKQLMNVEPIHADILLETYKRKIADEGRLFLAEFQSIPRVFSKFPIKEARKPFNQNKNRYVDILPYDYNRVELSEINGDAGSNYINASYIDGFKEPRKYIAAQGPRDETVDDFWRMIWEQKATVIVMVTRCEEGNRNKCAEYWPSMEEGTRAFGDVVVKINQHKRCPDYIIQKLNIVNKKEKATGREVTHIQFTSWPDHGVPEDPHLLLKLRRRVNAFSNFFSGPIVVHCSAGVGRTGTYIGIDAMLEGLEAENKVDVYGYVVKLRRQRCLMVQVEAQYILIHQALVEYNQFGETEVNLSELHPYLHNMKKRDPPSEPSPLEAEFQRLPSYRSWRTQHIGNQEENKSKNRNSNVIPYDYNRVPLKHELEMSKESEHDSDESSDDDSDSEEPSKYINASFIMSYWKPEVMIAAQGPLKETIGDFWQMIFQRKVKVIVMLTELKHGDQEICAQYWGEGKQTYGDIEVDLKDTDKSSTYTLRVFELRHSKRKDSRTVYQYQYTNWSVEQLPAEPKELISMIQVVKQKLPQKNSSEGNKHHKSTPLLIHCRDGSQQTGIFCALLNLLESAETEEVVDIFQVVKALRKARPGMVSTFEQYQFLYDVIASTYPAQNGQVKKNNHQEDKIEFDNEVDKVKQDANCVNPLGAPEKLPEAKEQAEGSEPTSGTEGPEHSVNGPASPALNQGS

Sequence of Tyrosine-protein phosphatase non-receptor type 6 (Homo sapiens) (P29350 whole entry, the tested form may be a part): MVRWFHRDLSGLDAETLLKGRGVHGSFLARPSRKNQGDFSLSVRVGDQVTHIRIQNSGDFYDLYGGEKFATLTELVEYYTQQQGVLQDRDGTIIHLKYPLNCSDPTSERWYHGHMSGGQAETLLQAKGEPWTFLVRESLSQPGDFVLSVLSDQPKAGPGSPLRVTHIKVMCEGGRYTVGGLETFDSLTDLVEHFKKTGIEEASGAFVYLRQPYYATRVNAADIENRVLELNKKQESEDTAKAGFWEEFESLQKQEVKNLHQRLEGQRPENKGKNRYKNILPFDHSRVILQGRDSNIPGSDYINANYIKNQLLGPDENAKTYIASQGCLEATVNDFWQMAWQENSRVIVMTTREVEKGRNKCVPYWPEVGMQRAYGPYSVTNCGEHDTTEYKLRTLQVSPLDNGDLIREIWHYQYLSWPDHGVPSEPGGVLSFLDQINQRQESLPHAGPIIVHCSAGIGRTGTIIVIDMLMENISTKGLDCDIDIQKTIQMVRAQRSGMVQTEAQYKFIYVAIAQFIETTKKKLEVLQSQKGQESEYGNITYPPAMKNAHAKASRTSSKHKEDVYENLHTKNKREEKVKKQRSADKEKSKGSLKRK

In the case of `O=C(NC(Cc1cc(=O)[nH]c2ccccc12)C(=O)O)c1ccc(Cl)cc1` (stereo not given), the inhibition [1] is reported as “Active”, the inhibition (Homo sapiens) is reported as “inactive” and the inhibition [2] is reported as “inactive”. For the same compound, the inhibition [3] was “inactive” and the inhibition [4] was “inactive”.
